In article PMC6017536, “Synthesis and Smo Activity of Some Novel Benzamide Derivatives” (Molecules : A Journal of Synthetic Chemistry and Natural …, 2017):

Columns and labels:
[1] = system: Hh signaling pathway (Gli-luc reporter, NIH3T3 cells); experiment: NIH3T3-Gli-luciferase reporter assay (Gli-Luc dual luciferase); type: cell-based, Mouse; conditions: NIH3T3 cells transfected with Gli luciferase reporter, stimulated with 10 nM SAG, 24 h, average of triplicate separate determinations
Protocol: In the Hh signaling pathway activity test, we used the Gli-Luc double luciferase detection system, which is widely used to test the inhibitory activity of the Hh signaling pathway. […]
3.3.1. NIH3T3-Gli-Luciferase Reporter Assay
NIH3T3 cells (Chinese Academy of Sciences cell bank, Mouse embryonic fibroblast cell line) were grown in Dulbecco’s Modified Eagle Media (DMEM) media supplemented with 10% fetal bovine serum (FBS) at 37 °C with a humidified 5% CO2 atmosphere.
NIH3T3 cells were plated one day before transfection. To prepare NIH3T3 cells, enough cells were collected to complete the transfection experiment, and centrifuged for 5 min at 300× g. The cell pellet was resuspended to an appropriate concentration in DMEM media with 0.5% FBS, then 5000 cells were plated in 100 μL per well of a 96-well plate.
The NIH3T3 cells were transfected with the Glioma-associated oncogene (GLI)-reporter, negative control, and positive control constructs (QIAGEN, Cat# CCS-6030L) by using Fugene HD transfection reagents (Promega, Cat. No. E2311, Madison, WI). The FuGENER HD Transfection Reagent/DNA mixture was incubated for 15 min at room temperature. A total of 10 μL of the FuGENER HD Transfection Reagent/DNA mixture was added per well to the 96-well plate containing 100 μL cells in growth medium. The mixture was mixed gently using a plate shaker. Cells were returned to the incubator for 24–48 h. Transfection efficiency was estimated by observing green fluorescent protein (GFP) expression in the positive control wells by fluorescence microscopy.
[…] Cells were incubated with SAG and compounds for 24 h. To study the effect of test compounds, cells were harvested 24 h after treatment to perform the dual-luciferase assay.
Dual-Luciferase assays were conducted using the Dual-Luciferase® Assay System (Promega, Cat# E1910) according to Promega’s protocol. Each system included: 5X Passive Lysis Buffer (PLB), Luciferase Assay Buffer II, Luciferase Assay Substrate, and 50X Stop & Glo® Substrate and Stop & Glo® Buffer.
After 24 h treatment, the assay medium was removed and cells were washed with PBS buffer, and then 20 μL of 1XPLB was added to each well. The culture plates were incubated on a plate shaker with gentle shaking at room temperature for 15 min. A total of 100 μL LARII was added to each well, and the firefly luciferase luminescence signal was measured using an EnVision® 2104 Multilabel Reader (PerkinElmer, Waltham, MA, USA), with a measure time of 10s. A total of 100 μL Stop & Glo® Reagent was added to each well, and Renilla luciferase luminescence signal was measured using an EnVision® 2104 Multilabel Reader (PerkinElmer); the measure time was 10 s.
Relative Luciferase Units (RLU) Calculation
Firefly: Renilla activity ratios were generated from experimental and control transfections. Ratios from transcription factor-responsive reporter transfections were divided by ratios from negative control transfections to obtain relative luciferase units. […]
The histogram of % inhibition of compounds was generated by using GraphPad Prism 5.0 software (GraphPad Software Inc., La Jolla, CA, USA).

human Smo = biological target: T1, human Smo (Homo sapiens, UniProt Q99835); experiment: hSmo BODIPY-cyclopamine competitive binding assay; conditions: inhibition of BODIPY-cyclopamine fluorescence, competitive displacement, HEK 293 cells over-expressing human Smo; single IC50 determination; read-out: Smo-BCB IC50
T1 construct: HA; expressed in transfected cells; host or cells: HEK293
T1 sequence (Q99835 28-787): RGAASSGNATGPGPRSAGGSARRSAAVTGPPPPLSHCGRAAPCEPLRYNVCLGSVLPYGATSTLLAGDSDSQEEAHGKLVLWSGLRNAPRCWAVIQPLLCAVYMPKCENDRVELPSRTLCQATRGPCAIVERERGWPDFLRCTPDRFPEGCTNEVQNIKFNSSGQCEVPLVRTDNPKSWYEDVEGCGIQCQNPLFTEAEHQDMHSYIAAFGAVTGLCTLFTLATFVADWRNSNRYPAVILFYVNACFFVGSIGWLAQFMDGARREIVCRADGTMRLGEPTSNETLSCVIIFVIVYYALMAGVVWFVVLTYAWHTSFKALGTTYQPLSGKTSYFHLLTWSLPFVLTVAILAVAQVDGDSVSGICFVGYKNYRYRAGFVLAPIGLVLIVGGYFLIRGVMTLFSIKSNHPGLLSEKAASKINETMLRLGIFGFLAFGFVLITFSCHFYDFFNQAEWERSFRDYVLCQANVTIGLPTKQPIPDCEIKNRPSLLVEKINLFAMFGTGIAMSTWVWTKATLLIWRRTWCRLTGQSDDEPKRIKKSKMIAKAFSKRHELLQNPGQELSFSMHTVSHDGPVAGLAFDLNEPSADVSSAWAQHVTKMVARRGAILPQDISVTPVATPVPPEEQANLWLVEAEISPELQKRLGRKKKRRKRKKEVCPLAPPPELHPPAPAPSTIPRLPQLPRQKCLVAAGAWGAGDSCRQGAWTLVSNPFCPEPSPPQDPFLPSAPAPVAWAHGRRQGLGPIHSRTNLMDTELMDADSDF
Protocol: To determine whether the Hh inhibitory activities of the target compounds were derived from their inhibition to the Smo receptor, a binding assay was used.
3.3.2. Hsmo-BC Binding Assay
BODIPY-cyclopamine binding assay is a fluorescence-based assay used to analyze the binding of Smo agonists/antagonists. HEK293 cells were transfected with pCMV-HA/hSmo using Lipofectamine reagent (Lipofectamine™ 2000, Invitrogen, Carlsbad, CA, USA). Briefly, 50 μL of Lipofectamine 2000 and 22.5 μg of pCMV-HA/hSmo were each incubated in 1.5 mL of Opti-MEMI media (Invitrogen) at room temperature for 30 min and then was added to 1 × 10^6 HeK293 cells in 25 mL of culture medium in a 75 cm^2 cell culture flask. After overnight incubation under 5% CO2 at 37 °C, cells were detached using Versene (Invitrogen) and resuspended in culture medium. The suspended cells were added to a 96-well plate at 10,000 cells/well. After removing the media from each well, the cells were fixed with 4% paraformaldehyde (PFA) for 20 min at room temperature. Then the PFA buffer was removed, and the cells were incubated with 4′,6-diamidino-2-phenylindole (DAPI) ([…]) for 10 min, followed by washing with PBS four times. […] After incubation, the cells were washed five times with PBST (PBS buffer supplied with 0.05% Tween-20). The fluorescence images were automatically captured and analyzed by a high content fluorescence imaging system (Arrayscan VTI, Thermo, Waltham, MA, USA). Data was expressed as a percentage of fluorescence intensity observed with BODIPY-cyclopamine alone. […] IC50 values were calculated with GraphPad Prism software using the sigmoidal dose-response function.

Row | Compound | IC50 [1] | IC50 ([1]; Mus musculus) | IC50 (human Smo)
1 | 3-Methoxy-N-(3-(4-(4-methylpiperazine-1-carbonyl)piperidin-1-yl)phenyl)benzamide [Compound 5j] | 4.74 ± 0.02 µM |  | 
2 | 3-Methyl-N-(3-(4-(4-methylpiperazine-1-carbonyl)piperidin-1-yl)phenyl)benzamide [Compound 5i] | 16.32 ± 0.05 µM |  | 
3 | CN1CCN(C(=O)C2CCN(c3cccc(NC(=O)c4ccccc4)c3)CC2)CC1 [Compound 5a, N-(3-(4-(4-Methylpiperazine-1-carbonyl)piperidin-1-yl)phenyl)benzamide] |  | 28.52 ± 0.02 µM | 
4 | CN1CCN(C(=O)C2CCN(c3cccc(NC(=O)c4ccc(Cl)cc4)c3)CC2)CC1 [Compound 5b, 4-Chloro-N-(3-(4-(4-methylpiperazine-1-carbonyl)piperidin-1-yl)phenyl)benzamide] |  | 12.47 ± 0.11 µM | 
5 | CN1CCN(C(=O)C2CCN(c3cccc(NC(=O)c4cccc(Cl)c4)c3)CC2)CC1 [Compound 5c, 3-Chloro-N-(3-(4-(4-methylpiperazine-1-carbonyl)piperidin-1-yl)phenyl)benzamide] |  | 14.63 ± 0.01 µM | 
6 | CN1CCN(C(=O)C2CCN(c3cccc(NC(=O)c4ccc(F)cc4)c3)CC2)CC1 [Compound 5d, 4-Fluoro-N-(3-(4-(4-methylpiperazine-1-carbonyl)piperidin-1-yl)phenyl)benzamide] |  | 15.51 ± 0.03 µM | 
7 | CN1CCN(C(=O)C2CCN(c3cccc(NC(=O)c4cccc(F)c4)c3)CC2)CC1 [Compound 5e, 3-Fluoro-N-(3-(4-(4-methylpiperazine-1-carbonyl)piperidin-1-yl)phenyl)benzamide] |  | 17.59 ± 0.15 µM | 
8 | CN1CCN(C(=O)C2CCN(c3cccc(NC(=O)c4cccc([N+](=O)[O-])c4)c3)CC2)CC1 [Compound 5f, N-(3-(4-(4-methylpiperazine-1-carbonyl)piperidin-1-yl)phenyl)-3-nitrobenzamide] |  | 53.34 ± 0.07 µM | 
9 | CN1CCN(C(=O)C2CCN(c3cccc(NC(=O)c4ccc([N+](=O)[O-])cc4)c3)CC2)CC1 [Compound 5g, N-(3-(4-(4-methylpiperazine-1-carbonyl)piperidin-1-yl)phenyl)-4-nitrobenzamide] |  | 60.56 ± 0.04 µM | 
10 | CN1CCN(C(=O)C2CCN(c3cccc(NC(=O)c4ccc(Br)cc4)c3)CC2)CC1 [Compound 5h, 4-Bromo-N-(3-(4-(4-methylpiperazine-1-carbonyl)piperidin-1-yl)phenyl)benzamide] |  | 7.85 ± 0.01 µM | 
11 | Cc1ccccc1C(=O)Nc1cccc(N2CCC(C(=O)N3CCN(C)CC3)CC2)c1 [Compound 5k, 2-Methyl-N-(3-(4-(4-methylpiperazine-1-carbonyl)piperidin-1-yl)phenyl)benzamide] |  | 16.61 ± 0.12 µM | 
12 | COc1cc(OC)cc(C(=O)Nc2cccc(N3CCC(C(=O)N4CCN(C)CC4)CC3)c2)c1 [Compound 5l, 3,5-Dimethoxy-N-(3-(4-(4-methylpiperazine-1-carbonyl)piperidin-1-yl)phenyl)benzamide] |  | 1.83 ± 0.03 µM | 2.41 ± 0.01 µM
13 | CN1CCN(C(=O)C2CCN(c3cccc(NC(=O)c4ccccc4Br)c3)CC2)CC1 [Compound 5m, 2-Bromo-N-(3-(4-(4-methylpiperazine-1-carbonyl)piperidin-1-yl)phenyl)benzamide] |  | 10.49 ± 0.05 µM | 
14 | CN1CCN(C(=O)C2CCN(c3cccc(NC(=O)c4cccnc4)c3)CC2)CC1 [Compound 5n, N-(3-(4-(4-methylpiperazine-1-carbonyl)piperidin-1-yl)phenyl)nicotinamide] |  | 5.32 ± 0.13 µM | 6.35 ± 0.07 µM
15 | CN1CCN(C(=O)C2CCN(c3cccc(NC(=O)c4ccc(S(C)(=O)=O)cc4Cl)c3)CC2)CC1 [Compound 5o, 2-Chloro-N-(3-(4-(4-methylpiperazine-1-carbonyl)piperidin-1-yl)phenyl)-4-(methylsulfonyl)benzamide] |  | 4.28 ± 0.01 µM | 6.23 ± 0.12 µM
16 | CN1CCN(C(=O)C2CCN(c3cccc(NC(=O)c4ccc(S(C)(=O)=O)cc4)c3)CC2)CC1 [Compound 5p, N-(3-(4-(4-methylpiperazine-1-carbonyl)piperidin-1-yl)phenyl)-4-(methylsulfonyl)benzamide] |  | 3.43 ± 0.08 µM | 
17 | CN1CCN(C(=O)C2CCN(c3cccc(NC(=O)c4cccc(-c5ccccn5)c4)c3)CC2)CC1 [Compound 5q, N-(3-(4-(4-methylpiperazine-1-carbonyl)piperidin-1-yl)phenyl)-3-(pyridin-2-yl)benzamide] |  | 1.26 ± 0.03 µM | 1.61 ± 0.02 µM
18 | CS(=O)(=O)N1CCN(C(=O)Cc2ccc(Cl)c(NC(=O)c3ccc(Cl)cc3)c2)CC1 [Compound 8a, 4-Chloro-N-(2-chloro-5-(2-(4-(methylsulfonyl)piperazin-1-yl)-2-oxoethyl)phenyl)benzamide] |  | 6.88 ± 0.13 µM | 
19 | O=C(Nc1cc(CC(=O)N2CCN(S(=O)(=O)c3ccc(F)cc3)CC2)ccc1Cl)c1ccc(Cl)cc1 [Compound 8b, 4-Chloro-N-(2-chloro-5-(2-(4-((4-fluorophenyl)sulfonyl)piperazin-1-yl)-2-oxoethyl)phenyl)benzamide] |  | 12.7 ± 0.16 µM | 
20 | CCCCS(=O)(=O)N1CCN(C(=O)Cc2ccc(Cl)c(NC(=O)c3ccc(Cl)cc3)c2)CC1 [Compound 8c, N-(5-(2-(4-(butylsulfonyl)piperazin-1-yl)-2-oxoethyl)-2-chlorophenyl)-4-chlorobenzamide] |  | 8.62 ± 0.09 µM | 
21 | COc1cc(C(=O)NC(=S)Nc2cccc(NC(=O)c3ccccc3)c2)cc(OC)c1OC [MRT10, reference compound] |  | 2.15 µM | 
22 | CS(=O)(=O)c1ccc(C(=O)Nc2ccc(Cl)c(-c3ccccn3)c2)c(Cl)c1 [Vismodegib, reference compound] |  | 0.025 µM | 
